Experimental findings from US8415376B2, “Inhibitors of PI3 kinase” (Amgen Inc., priority 2008, dated 2013) are described below.

The structures appear in SMILES notation.

One experiment addresses T1, PI3Kβ (Homo sapiens, UniProt P42338).
T1 construct: Full length p110 subunits of PI3K α, β and δ, N-terminally labeled with polyHis tag; polyHis (N); made in house; host or cells: Sf9 insect cells (baculovirus)
Briefly: In vitro PI3 kinase enzyme assay (PI3K ATP loss), beta. Format: biochemical. The following applies: average if run more than once.

The subject of experiment [1] is phosphorylation of Akt at Ser473. Put plainly: Cell-based phospho-Akt Ser473 assay (HCT116 cell). The following applies: HCT 116 human colon carcinoma cells, IGF-1 stimulated; average. The source says:
Cell-Based Phospho-Akt Ser473 Assay (HCT116 Cell)
This assay determines the ability of a compound to inhibit the phosphorylation of […] in Akt using a MSD based sandwich immunoassay (Meso Scale Detection, Meso Scale Discovery (MSD), Gaithersburg, Md.). HCT 116 human colon carcinoma cell lines can be grown in McCoy's 5A growth medium (GIBCO, Carlsbad, Calif.) containing 10% FBS (GIBCO, Carlsbad, Calif.) and X1 Penicillin-streptomycin-glutamine (GIBCO, Carlsbad, Calif.). Prior to the assay, cells can be detached from the culture flask with trypsin, and re-suspended in complete media to give a final concentration of 1.6×10^5 cells per mL. Aliquots (100 μl) of the HCT116 cell suspension can be seeded into each well of a 96 well tissue culture plate to give a final density of 16,000 cells per well. Cells can then be incubated overnight at 37° C.
The following day the cells can be treated with serially diluted test compounds and incubated for 2 hours at 37° C. The culture media on the HCT 116 cells can be replaced with 189 μL McCoys media, supplemented with 0.1% BSA (ICN Biomedicals, Inc., Costa Mesa, Calif.). Compounds can be prepared as either 10 mM or 0.5 mM stock solutions in DMSO, and serially diluted 3 fold in a 10-point dose-response curve to give final concentrations that are 200-fold greater than the desired final test concentration. Aliquots (1 μL) of serially-diluted compounds can be transferred to 96 well tissue culture plates containing the HCT 116 cells. […] As a maximum response control, wells can contain 0.5% DMSO in place of compound. The plates can be mixed at 700 rpm for 2 min to ensure even distribution of the test compound and incubated for 2 hours at 37° C. Cells can then be stimulated with insulin-like growth factor 1 (Sigma, St Louis, Mo.) at final concentration of 100 ng/ml for 15 minutes at 37° C. The media can then be removed and the cells treated with 80 μL cell-lysis buffer (MSD) containing a cocktail of protease and phosphatase inhibitors for one hour at 4° C.
25 μL Cell lysate can then be transferred to pre-blocked MSD assay plates pre-coated with a capture antibody specific for Akt, and the plates can be incubated for 2 hours at room temperature. The cell lysates can then be removed and plates can then be washed four times with 200 μl per well of Tris wash buffer (500 mM Tris, PH 7.5, 1.5 M NaCl, 0.2% Tween-20). Subsequently cells can be incubated for 1 hour at room temperature with a 25 μL solution containing the detection antibody, anti-phospho Akt (Ser 473) labeled with an electrochemiluminescent compound (Meso Scale Discovery SULPHO-TAG™ label, MSD, Gaithersburg, Md.). The detection antibody can be removed and plates can then be washed four times with 200 μL per well of Tris wash buffer. An aliquot of 150 μL of diluted MSD read buffer can then be applied to each well, and the electrochemiluminescent signal can be measured using a MSD SECTOR™ plate reader (Meso Scale Discovery, Gaithersburg, Md.). This instrument measures the intensity of emitted light to determine a quantitative measure of phosphorylated Akt in each well. The dose-response data obtained with each compound can be analyzed and the IC50 inhibition of Akt phosphorylation at Ser473 can be calculated.
Activity data for the compounds tested in the PI3K cell based Akt assay is provided in Table 1 under the column heading HCT116 Cell.

In another experiment the target is T2, mTOR (Homo sapiens, UniProt P42345).
T2 construct: purchased Invitrogen (Carlsbad, Calif.)
T2 sequence (P42345 1360-2549 limits assumed): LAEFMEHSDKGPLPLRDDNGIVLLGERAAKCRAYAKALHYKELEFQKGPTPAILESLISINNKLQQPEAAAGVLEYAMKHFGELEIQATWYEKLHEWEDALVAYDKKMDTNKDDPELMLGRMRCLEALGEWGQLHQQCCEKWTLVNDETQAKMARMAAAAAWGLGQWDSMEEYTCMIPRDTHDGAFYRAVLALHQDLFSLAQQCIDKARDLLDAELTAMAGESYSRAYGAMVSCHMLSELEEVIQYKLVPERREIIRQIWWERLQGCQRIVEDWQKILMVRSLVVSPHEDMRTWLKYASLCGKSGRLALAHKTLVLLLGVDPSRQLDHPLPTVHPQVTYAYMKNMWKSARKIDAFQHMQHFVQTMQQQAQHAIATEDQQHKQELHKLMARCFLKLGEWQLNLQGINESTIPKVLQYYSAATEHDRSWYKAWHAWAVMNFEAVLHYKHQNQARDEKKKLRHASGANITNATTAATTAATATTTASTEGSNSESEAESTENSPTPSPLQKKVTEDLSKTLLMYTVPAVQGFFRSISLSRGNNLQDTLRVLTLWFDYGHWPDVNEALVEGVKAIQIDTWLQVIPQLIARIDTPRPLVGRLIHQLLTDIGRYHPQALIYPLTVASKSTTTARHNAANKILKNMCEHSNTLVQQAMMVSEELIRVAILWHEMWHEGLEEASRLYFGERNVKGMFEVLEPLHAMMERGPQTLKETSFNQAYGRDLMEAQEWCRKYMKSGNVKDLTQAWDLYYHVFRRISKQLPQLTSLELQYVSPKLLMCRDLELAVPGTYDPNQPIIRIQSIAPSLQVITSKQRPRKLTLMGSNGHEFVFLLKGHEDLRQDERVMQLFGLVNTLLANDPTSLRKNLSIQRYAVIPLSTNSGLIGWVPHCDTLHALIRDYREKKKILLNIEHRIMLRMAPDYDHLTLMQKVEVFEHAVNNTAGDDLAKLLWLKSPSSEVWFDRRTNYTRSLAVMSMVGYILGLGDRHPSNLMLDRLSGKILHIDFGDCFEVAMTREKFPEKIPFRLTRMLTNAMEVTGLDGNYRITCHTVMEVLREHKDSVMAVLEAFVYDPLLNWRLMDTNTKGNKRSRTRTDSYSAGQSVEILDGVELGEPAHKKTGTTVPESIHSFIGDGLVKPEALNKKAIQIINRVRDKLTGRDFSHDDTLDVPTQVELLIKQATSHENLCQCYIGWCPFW
Briefly: In vitro mTOR assay (Lanthascreen). It counts as biochemical. The following applies: average if run more than once. The text has this:
The Invitrogen (Carlsbad, Calif.) mammalian target of rapamycin (mTOR) Lanthascreen assay can be used to quantitate mTOR kinase activity in an in vitro setting. Active mTOR phosphorylates eukaryotic translation initiation factor 4E binding protein 1 (4E-BP1) on residue threonine 46. This phosphorylation event can be detected with a phospho-specific terbium (Tb) labeled Ab, in turn bringing the Tb label in close proximity to the GFP tagged 4E-BP1 and allowing for time-resolved fluorescence resonance energy transfer (TR-FRET), which correlates 4E-BP1 phosphorylation levels with mTOR kinase activity.
Enzyme reaction buffer can be prepared in deionized water containing 50 mM HEPES (pH 7.5), 0.01% Polysorbate 20, 1 mM EGTA, and 10 mM MnCl2.
Dilutions of the compound to be tested can be prepared in 96-well polypropylene plates (Fisher Scientific, Waltham, Mass.). One row represents a 10-point dose of compound diluted 1:3 in enzyme reaction buffer and 20% dimethyl sulfoxide (DMSO). The top concentration for all compounds is 36 μM. Wells 6 and 12 can serve as the no compound (DMSO only) and high compound controls.
An mTOR substrate solution can prepared in enzyme reaction buffer containing 1600 nM green fluorescent protein tagged eukaryotic translation initiation factor 4E binding protein 1 (GFP-4E-BP1) (Invitrogen, Carlsbad, Calif.) and 28 uM adenosine triphosphate (ATP) (Calbiochem, Gibbstown, N.J.).
mTOR enzyme (Invitrogen, Carlsbad, Calif.) can be diluted in enzyme reaction buffer to a working concentration of 100 ng/mL.
The enzyme assay can be run in 384 well low volume assay plates (Corning, Corning, N.Y.). 2.5 uL of substrate solution containing GFP-4E-BP1 and ATP can be added to appropriate wells in the assay plate followed by 2.5 μL of compound dilutions. 5 μL of appropriately diluted mTOR enzyme can be added and the reaction allowed to proceed for 1 hour at room temperature. Final reagent concentrations in the enzyme assay are 50 ng/mL mTOR, 400 nM GFP-4E-BP1, and 7 μM ATP.
The enzyme assay can be terminated upon the addition of 10 μL of 20 mM EDTA and 4 nM Tb-labeled anti-phospho-4E-BP1 [T46] antibody (Invitrogen, Carlsbad, Calif.). The assay plate can then be incubated at room temperature for 1 hour and results read on a Tecan Safire II plate reader (Tecan, Männedorf, Switzerland).

T1 sequence (P42338 whole entry): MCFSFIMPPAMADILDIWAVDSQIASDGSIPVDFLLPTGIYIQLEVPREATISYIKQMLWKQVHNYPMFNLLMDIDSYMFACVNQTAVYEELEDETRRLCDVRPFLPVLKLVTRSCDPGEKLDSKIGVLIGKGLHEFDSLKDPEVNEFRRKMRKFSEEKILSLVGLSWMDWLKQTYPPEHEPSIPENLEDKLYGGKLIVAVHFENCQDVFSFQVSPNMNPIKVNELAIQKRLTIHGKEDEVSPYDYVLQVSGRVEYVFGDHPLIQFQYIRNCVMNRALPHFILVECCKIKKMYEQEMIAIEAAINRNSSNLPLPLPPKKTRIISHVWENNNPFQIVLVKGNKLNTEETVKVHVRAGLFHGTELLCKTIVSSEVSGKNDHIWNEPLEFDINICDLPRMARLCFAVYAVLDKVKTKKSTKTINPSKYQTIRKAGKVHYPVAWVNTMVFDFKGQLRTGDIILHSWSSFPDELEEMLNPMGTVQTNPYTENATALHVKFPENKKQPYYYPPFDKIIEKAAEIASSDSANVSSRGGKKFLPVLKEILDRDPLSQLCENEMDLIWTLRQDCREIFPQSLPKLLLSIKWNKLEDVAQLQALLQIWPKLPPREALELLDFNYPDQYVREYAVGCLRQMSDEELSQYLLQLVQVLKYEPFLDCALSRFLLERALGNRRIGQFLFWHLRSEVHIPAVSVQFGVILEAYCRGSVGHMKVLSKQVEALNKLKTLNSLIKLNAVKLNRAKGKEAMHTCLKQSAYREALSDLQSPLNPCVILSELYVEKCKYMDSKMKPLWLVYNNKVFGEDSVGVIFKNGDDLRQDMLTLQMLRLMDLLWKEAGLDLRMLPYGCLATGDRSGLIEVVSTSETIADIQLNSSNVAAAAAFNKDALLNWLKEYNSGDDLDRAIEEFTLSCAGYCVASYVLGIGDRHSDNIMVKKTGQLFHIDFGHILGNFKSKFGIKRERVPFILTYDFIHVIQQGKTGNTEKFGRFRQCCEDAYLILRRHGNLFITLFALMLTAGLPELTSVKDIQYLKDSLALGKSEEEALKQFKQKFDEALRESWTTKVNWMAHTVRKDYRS
T1 sequence (P27986 whole entry partner): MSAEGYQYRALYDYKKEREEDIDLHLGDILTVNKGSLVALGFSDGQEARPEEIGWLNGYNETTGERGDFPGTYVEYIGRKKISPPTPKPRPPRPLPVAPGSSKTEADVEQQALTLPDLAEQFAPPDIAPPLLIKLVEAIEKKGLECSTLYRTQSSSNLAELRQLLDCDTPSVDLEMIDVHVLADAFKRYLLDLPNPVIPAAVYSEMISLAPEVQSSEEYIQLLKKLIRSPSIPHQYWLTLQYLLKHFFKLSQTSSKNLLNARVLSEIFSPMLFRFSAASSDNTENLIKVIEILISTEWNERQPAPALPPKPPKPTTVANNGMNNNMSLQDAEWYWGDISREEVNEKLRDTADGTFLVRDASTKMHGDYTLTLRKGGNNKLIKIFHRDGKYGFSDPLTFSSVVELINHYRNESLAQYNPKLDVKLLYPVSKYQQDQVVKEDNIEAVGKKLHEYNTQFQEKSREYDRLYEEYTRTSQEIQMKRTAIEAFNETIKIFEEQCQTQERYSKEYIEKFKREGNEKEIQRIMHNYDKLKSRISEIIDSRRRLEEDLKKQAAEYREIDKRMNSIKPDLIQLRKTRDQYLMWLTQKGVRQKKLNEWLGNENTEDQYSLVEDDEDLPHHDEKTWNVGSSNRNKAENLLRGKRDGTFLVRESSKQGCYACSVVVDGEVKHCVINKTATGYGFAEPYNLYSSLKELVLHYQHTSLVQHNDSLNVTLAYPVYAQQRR
Method for PI3Kβ: Full length p110 subunits of PI3K α, β and δ, N-terminally labeled with polyHis tag, can be co-expressed with p85 with Baculo virus expression vectors in sf9 insect cells. P110/p85 heterodimers can be purified by sequential Ni-NTA, Q-HP, Superdex-100 chromatography. Purified α, β and δ isozymes can be stored at −20° C. in 20 mM Tris, pH 8, 0.2M NaCl, 50% glycerol, 5 mM DTT, 2 mM Na cholate. […] The γ isozyme can be purified by sequential Ni-NTA, Superdex-200, Q-HP chromatography. The γ isozyme can be stored frozen at −80° C. in NaH2PO4, pH 8, 0.2M NaCl, 1% ethylene glycol, 2 mM β-mercaptoethanol.
In Vitro PI3 Kinase Enzyme Assays (PI3K Atploss)
PI3K enzyme assays (alpha, beta, delta and gamma) can be performed in 25 μL with the above final concentrations of components in white polyproplyene plates. Phosphatidyl inositol phosphoacceptor, PtdIns(4,5)P2 (eg. P4508) can be obtained from Echelon Biosciences, Salt Lake City, Utah. […] Test compounds can be dissolved in DMSO and diluted with three-fold serial dilutions. The compound in DMSO (1 μL) may be added per test well, and the inhibition relative to reactions containing no compound, with and without enzyme can be determined After assay incubation at RT, the reaction can be stopped and residual ATP can be determined by addition of an equal volume of a commercial ATP bioluminescence kit (Perkin Elmer EasyLite, Perkin Elmer, Waltham, Mass.) according to the manufacturer's instructions, and detected using an Analyst GT luminometer.

`COCCOc1ccnc2ccc(-c3cnc(Cl)c(NS(=O)(=O)c4ccc(F)cc4)c3)cc12` [Example 31, N-(2-chloro-5-(4-(2-methoxyethoxy)-6-quinolinyl)-3-pyridinyl)-4-fluorobenzenesulfonamide]: the values for the 50% inhibitory concentration (IC50) (on PI3Kβ; in experiment [1]) were 0.0144 µM and 0.0252 µM, respectively.

Consider `O=S(=O)(Nc1cc(-c2ccc3ncc(N4C[C@H]5CC[C@H](CC5)C4)nc3c2)cnc1Cl)c1ccc(F)cc1` [Example 62, N-(5-(3-(3-azabicyclo[3.2.2]non-3-yl)-6-quinoxalinyl)-2-chloro-3-pyridinyl)-4-fluorobenzenesulfonamide], for which the IC50 at PI3Kβ came out at 0.343 µM; in experiment [1], 0.263 µM. In the case of `O=S(=O)(Nc1cc(-c2ccc3nccc(N4CCCCC4)c3c2)cnc1Cl)c1ccc(F)cc1` [Example 24, N-(2-chloro-5-(4-(1-piperidinyl)-6-quinolinyl)-3-pyridinyl)-4-fluorobenzenesulfonamid], the IC50 against PI3Kβ worked out at 0.0184 µM; in experiment [1] it was 0.159 µM. For `COCCN(C)c1cnc2ccc(-c3cnc(Cl)c(NS(=O)(=O)c4ccc(F)cc4)c3)cc2n1` [Example 55, N-(2-chloro-5-(3-((2-methoxyethyl)(methyl)amino)-6-quinoxalinyl)-3-pyridinyl)-4-fluorobenzenesulfonamide], the IC50 against PI3Kβ worked out at 0.0207 µM; in experiment [1], 0.064 µM.

On mTOR, `COCCNc1ccnc2ccc(-c3cnc(Cl)c(NS(=O)(=O)c4ccc(F)cc4)c3)cc12` [Example 98, N-(2-chloro-5-(4-((2-methoxyethyl)amino)-6-quinolinyl)-3-pyridinyl)-4-fluorobenzenesulfonamide] registered a 50% inhibitory concentration (IC50) of 1.16 µM. `O=S(=O)(Nc1cc(-c2ccc3ncc(N4CCOCC4)nc3c2)cnc1Cl)c1ccc(F)cc1` [Example 20, N-(2-chloro-5-(3-(4-morpholinyl)-6-quinoxalinyl)-3-pyridinyl)-4-fluorobenzenesulfonamide] showed a half-maximal inhibitory concentration (IC50) in experiment [1] of 0.0062 µM. The same measure, in the same setting: with `COc1nc(-c2cnc(Cl)c(NS(=O)(=O)c3ccc(F)cc3)c2)cc2cccnc12` [Example 76, N-(2-Chloro-5-(8-methoxy-1,7-naphthyridin-6-yl)pyridin-3-yl)-4-fluorobenzenesulfonamide] the figure was 0.806 µM.

As to `O=S(=O)(Nc1cc(-c2ccc3ncc(NCCN4CCCCC4)nc3c2)cnc1Cl)c1ccc(F)cc1` [Example 61, N-(2-chloro-5-(3-((2-(1-piperidinyl)ethyl)amino)-6-quinoxalinyl)-3-pyridinyl)-4-fluorobenzenesulfonamide], the results for the IC50 (against PI3Kβ; in experiment [1]) were 0.0155 µM and 0.0515 µM, respectively. `O=S(=O)(Nc1cc(-c2ccc3ncc(NCCc4ccccc4)nc3c2)cnc1Cl)c1ccc(F)cc1` [Example 64, N-(2-chloro-5-(3-((2-phenylethyl)amino)-6-quinoxalinyl)-3-pyridinyl)-4-fluorobenzenesulfonamide]: the concentration for half-maximal inhibition (IC50) was determined as 0.0597 µM on PI3Kβ and 0.188 µM in experiment [1]. For `O=S(=O)(Nc1cc(-c2ccc3nccc(N4CCOCC4)c3c2)cnc1Cl)c1ccc(F)cc1` [Example 1, N-(2-chloro-5-(4-(4-morpholinyl)-6-quinolinyl)-3-pyridinyl)-4-fluorobenzenesulfonamide], in experiment [1], the IC50 came to 0.0174 µM. In other words, the double-digit nanomolar range. For `COCCNc1cnc2ccc(-c3cnc(Cl)c(NS(=O)(=O)c4ccc(F)cc4)c3)cc2n1` [Example 73, N-(2-chloro-5-(3-((2-methoxyethyl)amino)-6-quinoxalinyl)-3-pyridinyl)-4-fluorobenzenesulfonamide], the results for the IC50 (against PI3Kβ; in experiment [1]) were 0.0334 µM and 0.0595 µM, respectively. Taken in the same sequence, the figures for `O=S(=O)(Nc1cc(-c2ccc3ncc(NCC4CCCCC4)nc3c2)cnc1Cl)c1ccc(F)cc1` [Example 70, N-(2-chloro-5-(3-((cyclohexylmethyl)amino)-6-quinoxalinyl)-3-pyridinyl)-4-fluorobenzenesulfonamide] were 0.0532 µM and 0.151 µM. Consider `COc1ncccc1-c1ccnc2ccc(-c3cnc(Cl)c(NS(=O)(=O)c4ccc(F)cc4)c3)cc12` [Example 35, N-(2-chloro-5-(4-(2-methoxy-3-pyridinyl)-6-quinolinyl)-3-pyridinyl)-4-fluorobenzenesulfonamide], for which the IC50 at PI3Kβ worked out at 0.0212 µM; in experiment [1] it was 0.0548 µM. For the compound `O=S(=O)(Nc1cc(-c2ccc3nccc(Cl)c3c2)cnc1Cl)c1ccc(F)cc1` [Example 2, N-(2-chloro-5-(4-chloro-6-quinolinyl)-3-pyridinyl)-4-fluorobenzenesulfonamide], the figures for the IC50 (against PI3Kβ; in experiment [1]) were 0.0093 µM and 0.109 µM, respectively. Compound `CN(C)c1ccnc2ccc(-c3cnc(Cl)c(NS(=O)(=O)c4ccc(F)cc4)c3)cc12` [Example 97, N-(2-chloro-5-(4-(dimethylamino)-6-quinolinyl)-3-pyridinyl)-4-fluorobenzenesulfonamide] had an IC50 against mTOR of 0.111 µM. For the compound `O=S(=O)(Nc1cc(-c2ccc3nccnc3c2)cnc1Cl)c1ccc(F)cc1` [Example 6, N-(2-chloro-5-(6-quinoxalinyl)-3-pyridinyl)-4-fluorobenzenesulfonamide], the half-maximal inhibitory concentration (IC50) against PI3Kβ was 0.0254 µM; in experiment [1] it was 1.59 µM. For the compound `CC(C)N1CCN(c2ccnc3ccc(-c4cnc(Cl)c(NS(=O)(=O)c5ccc(F)cc5)c4)cc23)CC1` [Example 25, N-(2-chloro-5-(4-(4-(1-methylethyl)-1-piperazinyl)-6-quinolinyl)-3-pyridinyl)-4-fluorobenzenesulfonamide], the figures for the IC50 (against PI3Kβ; in experiment [1]) were 0.0119 µM and 0.0189 µM, respectively. Regarding `O=S(=O)(Nc1cc(-c2ccc3ncccc3n2)cnc1Cl)c1ccc(F)cc1` [Example 41, N-(2-chloro-5-(1,5-naphthyridin-2-yl)-3-pyridinyl)-4-fluorobenzenesulfonamide], the values for the half-inhibitory concentration (IC50) (against PI3Kβ; in experiment [1]) were 0.0597 µM and 0.629 µM, respectively.

Consider `COC1CCN(c2cnc3ccc(-c4cnc(Cl)c(NS(=O)(=O)c5ccc(F)cc5)c4)cc3n2)CC1` [Example 69, N-(2-chloro-5-(3-(4-methoxy-1-piperidinyl)-6-quinoxalinyl)-3-pyridinyl)-4-fluorobenzenesulfonamide], for which the IC50 on PI3Kβ came to 0.0344 µM; in experiment [1], 0.0526 µM.
